Experimental data: PubChem BioAssay AID2060909 (Molecular Pharmacology Branch, DTP, NCI, 2025)

System: 362531-283-R-J2-PDC complex spheroid viability
Test: Anticancer human tumor 362531-283-R-J2-PDC patient-derived colon adenocarcinoma cell line growth inhibition [RAS]
Conditions: for IC50: curve of first compound; for viability, T/C: stronger effect = lower value
How it was run: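 Tumour cells grown as complex spheroids with HUVEC endothelial cells and mesenchymal stem cells, treated with RAS pathway inhibitor combinations. Each agent spans half-log steps from near clinical Cmax, or 10 microM where Cmax is unknown.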

[1] = second compound 0.000949 µM, first compound 0.0316 µM
[2] = second compound 0.000949 µM, first compound 0.1 µM
[3] = second compound 0.000949 µM, first compound 0.316 µM
[4] = second compound 0.000949 µM, first compound 1 µM
[5] = second compound 0.000949 µM, first compound 3.16 µM
[6] = second compound 0.000949 µM, first compound 10 µM
[7] = second compound 0.003 µM, first compound 0.0316 µM
[8] = second compound 0.003 µM, first compound 0.1 µM
[9] = second compound 0.003 µM, first compound 0.316 µM
[10] = second compound 0.003 µM, first compound 1 µM
[11] = second compound 0.003 µM, first compound 3.16 µM
[12] = second compound 0.003 µM, first compound 10 µM
[13] = second compound 0.00949 µM, first compound 0.0316 µM
[14] = second compound 0.00949 µM, first compound 0.1 µM
[15] = second compound 0.00949 µM, first compound 0.316 µM
[16] = second compound 0.00949 µM, first compound 1 µM
[17] = second compound 0.00949 µM, first compound 3.16 µM
[18] = second compound 0.00949 µM, first compound 10 µM
[19] = second compound 0.03 µM, first compound 0.0316 µM
[20] = second compound 0.03 µM, first compound 0.1 µM
[21] = second compound 0.03 µM, first compound 0.316 µM
[22] = second compound 0.03 µM, first compound 1 µM
[23] = second compound 0.03 µM, first compound 3.16 µM
[24] = second compound 0.03 µM, first compound 10 µM
[25] = second compound 0.0949 µM, first compound 0.0316 µM
[26] = second compound 0.0949 µM, first compound 0.1 µM
[27] = second compound 0.0949 µM, first compound 0.316 µM
[28] = second compound 0.0949 µM, first compound 1 µM
[29] = second compound 0.0949 µM, first compound 3.16 µM
[30] = second compound 0.0949 µM, first compound 10 µM
[31] = second compound 0.3 µM, first compound 0.0316 µM
[32] = second compound 0.3 µM, first compound 0.1 µM
[33] = second compound 0.3 µM, first compound 0.316 µM
[34] = second compound 0.3 µM, first compound 1 µM
[35] = second compound 0.3 µM, first compound 3.16 µM
[36] = second compound 0.3 µM, first compound 10 µM
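Note: spheroids exposed to the agents for 7 days before readout.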
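Throughout, for viability, T/C: luminescence viability as percent of DMSO vehicle control wells.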

Compound `CC1(O)CCCC1n1c(=O)c(C(F)F)cc2cnc(NC3CCN(S(C)(=O)=O)CC3)nc21` (centres undefined) + CCn1c(-c2cc(N3CCN(C)CC3)cnc2C(C)OC)c2c3cc(ccc31)-c1csc(n1)CC(NC(=O)C1CC1C)C(=O)N1CCCC(N1)C(=O)OCC(C)(C)C2 has an IC50 (second compound 0.000949 µM) of 5.44 µM, an IC50 (second compound 0.003 µM) of 6.11 µM and an IC50 (second compound 0.00949 µM) of 8.98 µM. The IC50 (second compound 0.03 µM) was 5.9 µM, the IC50 (second compound 0.0949 µM) was greater than 10 µM and the IC50 (second compound 0.3 µM) was less than 0.0316 µM. The viability, T/C [1] was 97.7%, the viability, T/C [2] was 97.5% and the viability, T/C [3] was 98%. The viability, T/C [4] was 79.5%, the viability, T/C [5] was 57.6% and the viability, T/C [6] was 42.2%. For the same compound, the viability, T/C [7] was 109%, the viability, T/C [8] was 112% and the viability, T/C [9] was 97.4%. The viability, T/C [10] was 76.9%, the viability, T/C [11] was 61.5% and the viability, T/C [12] was 42.4%. The viability, T/C [13] was 94.6%, the viability, T/C [14] was 111% and the viability, T/C [15] was 108%. The viability, T/C [16] was 83.5%, the viability, T/C [17] was 65.5% and the viability, T/C [18] was 47.5%. The viability, T/C [19] was 99.2%, the viability, T/C [20] was 99.1% and the viability, T/C [21] was 89.4%. It also gave a viability, T/C [22] of 87%, a viability, T/C [23] of 69.2% and a viability, T/C [24] of 33.9%. For the same compound, the viability, T/C [25] was 80.7%, the viability, T/C [26] was 79.2% and the viability, T/C [27] was 78.6%. For the same compound, the viability, T/C [28] was 68.2%, the viability, T/C [29] was 56.4% and the viability, T/C [30] was 61%. The viability, T/C [31] was 37.4%, the viability, T/C [32] was 50.2% and the viability, T/C [33] was 37.7%. For the same compound, the viability, T/C [34] was 55.8%, the viability, T/C [35] was 45.9% and the viability, T/C [36] was 7.05%.
`CCC(CC)c1cc(NC2CCC(N)C2)n2nccc2n1` (centres undefined) + CCn1c(-c2cc(N3CCN(C)CC3)cnc2C(C)OC)c2c3cc(ccc31)-c1csc(n1)CC(NC(=O)C1CC1C)C(=O)N1CCCC(N1)C(=O)OCC(C)(C)C2 showed an IC50 (second compound 0.000949 µM) of 4.55 µM, an IC50 (second compound 0.003 µM) of 4.56 µM and an IC50 (second compound 0.00949 µM) of 4.58 µM. The IC50 (second compound 0.03 µM) was 4.8 µM, the IC50 (second compound 0.0949 µM) was 4.69 µM and the IC50 (second compound 0.3 µM) was less than 0.0316 µM. For the same compound, the viability, T/C [1] was 94.5%, the viability, T/C [2] was 116% and the viability, T/C [3] was 99.3%. The viability, T/C [4] was 101%, the viability, T/C [5] was 71.2% and the viability, T/C [6] was 4.02%. For the same compound, the viability, T/C [7] was 103%, the viability, T/C [8] was 108% and the viability, T/C [9] was 96.6%. For the same compound, the viability, T/C [10] was 98.4%, the viability, T/C [11] was 71.4% and the viability, T/C [12] was 3.89%. The viability, T/C [13] was 102%, the viability, T/C [14] was 141% and the viability, T/C [15] was 97.5%. It also gave a viability, T/C [16] of 94.7%, a viability, T/C [17] of 76% and a viability, T/C [18] of 3.54%. It also gave a viability, T/C [19] of 101%, a viability, T/C [20] of 103% and a viability, T/C [21] of 89.8%. For the same compound, the viability, T/C [22] was 99.4%, the viability, T/C [23] was 76.1% and the viability, T/C [24] was 3.95%. For the same compound, the viability, T/C [25] was 90.2%, the viability, T/C [26] was 86.8% and the viability, T/C [27] was 81.2%. The viability, T/C [28] was 85.6%, the viability, T/C [29] was 74.1% and the viability, T/C [30] was 3.61%. The viability, T/C [31] was 47.8%, the viability, T/C [32] was 51.8% and the viability, T/C [33] was 45%. The viability, T/C [34] was 27.9%, the viability, T/C [35] was 4.3% and the viability, T/C [36] was 3.52%.
